“And” between values parts separate entries of the source, which are not always exact repeats. Equal values may be shown once.
Columns and labels:
[1] = Plasma pharmacokinetics of paracetamol, paracetamol glucuronide and paracetamol sulphate in rats (HPLC-UV, non-compartmental); format: in vivo, Wistar rats; details: for AUC0-t / AUC0-∞ / Cmax: plasma; for AUC0-t / AUC0-∞ / Cmax / paracetamol sulphate/paracetamol ratio, AUC0-t / paracetamol sulphate/paracetamol ratio, AUC0-∞ / paracetamol sulphate/paracetamol ratio, Cmax: M ± SD
Protocol: The experimental protocol for this study was reviewed and approved by the Local Ethics Committee. All procedures were performed in accordance with the European Union regulations concerning the handling and use of laboratory animals. The study was based on the required minimum number of animals and observation time in order to obtain consistent data. […] The animals were allowed to acclimatise for a week before the beginning of the experiments. The rats were divided into three groups. […] In order to make sure that the animals received the entire dose of the drug, 1 mL of DMSO was then administered to rinse the probe. 80 μL of blood was collected from each rat by cutting off a piece of his tail. […] The blood samples were transferred into heparinised tubes and they were centrifuged at 2880 g for 10 min at 4 °C.
The total time of analysis for each run was 10 min. The column temperature was maintained at 25 °C, the UV detection wavelength was set at 261 nm, and the injection volume was 50 μL. The validation was performed according to the guidelines of the European Medicines Agency (EMA) concerning validation of bioanalytical methods. […] 20 μL of the internal standard solution and 200 μL of 6% perchloric acid were added to 100 μL of the rat plasma. The samples were shaken for 30 s and then they were centrifuged for 10 min at 5000 g. About 100 μL of the resulting supernatants was transferred into glass inserts and a volume of 50 μL was injected onto HPLC column.
The pharmacokinetic parameters were estimated with the non-compartmental method, using Phoenix® WinNonlin® 7.0 software (Certara L.P.). kel – elimination rate constant; AUC0-t – area under the plasma concentration-time curve from zero to the time of the last measurable concentration; AUC0-∞ – area under the plasma concentration-time curve from zero to infinity; t0.5 – elimination half-life; Cl/F – clearance; Vd/F – volume of distribution; Cmax – maximum plasma concentration; tmax – time necessary to reach the maximum concentration; MRT0-t – mean residence time; AUMC0-t – area under the first moment curve.

[2] = lapatinib administered together with leucovorin, irinotecan and 5-fluorouracil; cited from earlier work
UGTs = details: in vitro, human liver microsomes; cited from earlier work
[3] = paracetamol 100 mg/kg p.o. + lapatinib 100 mg/kg p.o. (IL + PA)
[4] = paracetamol 100 mg/kg p.o. alone (IIIPA)
[5] = paracetamol + lapatinib 100 mg/kg p.o. each (IL + PA)

In the case of `CC(=O)Nc1ccc(OS(=O)(=O)O)cc1` [paracetamol sulphate], the “increase in AUC0-t” value ([1]; IL + PA vs IIIPA group) is reported as ~61% and 61.4%, the AUC0-t [1, 3] is reported as 116.04 ± 27.02 (23.3) μg × h/mL and the “AUC0-∞” value [1, 3] is reported as 130.23 ± 31.32 (24.1) μg × h/mL. For the same compound, the Cmax [1, 3] was 35.15 ± 6.61 (18.8) μg/mL, the “paracetamol sulphate/paracetamol ratio, AUC0-t” value [1, 4] was 0.91 ± 0.43 (47.3) and the “paracetamol sulphate/paracetamol ratio, AUC0-∞” value [1, 4] was 1.05 ± 0.45 (43.1). For the same compound, the “paracetamol sulphate/paracetamol ratio, Cmax” value [1, 4] was 0.88 ± 0.46 (52.7), the AUC0-t [1, 4] was 71.92 ± 31.04 (43.2) μg × h/mL and the “AUC0-∞” value [1, 4] was 82.42 ± 32.71 (39.7) μg × h/mL. The Cmax [1, 4] was 19.41 ± 7.05 (36.4) μg/mL, the “paracetamol sulphate/paracetamol ratio, AUC0-t” value [1, 5] was 4.27 ± 2.29 (53.5) and the “paracetamol sulphate/paracetamol ratio, AUC0-∞” value [1, 5] was 4.86 ± 2.74 (56.5). For the same compound, the “paracetamol sulphate/paracetamol ratio, Cmax” value [1, 5] was 4.73 ± 3.02 (64.0).

In the case of `CCc1c2c(nc3ccc(O)cc13)-c1cc3c(c(=O)n1C2)COC(=O)[C@]3(O)CC` [SN-38], the “increase in AUC of SN-38” value [2] is given as “about 40%”.

In the case of `Cc1ccc(NC(=O)c2ccc(CN3CCN(C)CC3)cc2)cc1Nc1nccc(-c2cccnc2)n1` [imatinib], the “inhibition of paracetamol glucuronidation” value (“inhibition” below) (UGTs) is given as “inhibited paracetamol glucuronidation”.

For `Cc1nc(Nc2ncc(C(=O)Nc3c(C)cccc3Cl)s2)cc(N2CCN(CCO)CC2)n1` [dasatinib], the “inhibition” value (UGTs) is listed as “inhibited paracetamol glucuronidation”.

In the case of `COc1cc2c(Nc3ccc(Br)cc3F)ncnc2cc1OCC1CCN(C)CC1` [vandetanib], the “inhibition” value (UGTs) is listed as “slight inhibitory effect”.

For `CNC(=O)c1cc(Oc2ccc(NC(=O)Nc3ccc(Cl)c(C(F)(F)F)c3)cc2)ccn1` [sorafenib], the “inhibition” value (UGTs) is given as “inhibited paracetamol glucuronidation”.
